Reference: ChEMBL document CHEMBL1268839, “Small molecules targeting the interaction between HIV-1 integrase and LEDGF/p75 cofactor” (Bioorg Med Chem, 2010)
pIC50: −log10 of the molar value.

How the values were obtained:
[1] = Inhibition of HIV-1 His6-tagged integrase-recombinant flag-tagged LEDGF/p75 interaction 1 hr by alphascreen assay
[2] = Inhibition of HIV1 His6-tagged integrase-recombinant flag-tagged LEDGF/p75 interaction at 100 uM after 1 hr by alphascreen assay
[3] = Selectivity ratio of compound IC50 to CHIBA-3003 IC50 for HIV-1 His6-tagged integrase-recombinant flag-tagged LEDGF/p75 interaction

Row | SMILES | pIC50 [1] | inhibition [2] [%] | Ratio IC50 [3]
1 | O=C(O)/C(O)=C/C(=O)c1c[nH]c2cccc(O)c12 | 4.46 | 71 | –
2 | Cc1ccc(Cn2cc(C(=O)C3=C(O)C(=O)OC3)c3c(O)cccc32)c(C)c1 | 4.93 | 96 | –
3 | Cc1ccccc1Cn1cc(C(=O)/C=C(\O)C(=O)O)c2c(O)cccc21 | – | 20 | –
4 | Cc1ccc(Cn2cc(C(=O)/C=C(\O)C(=O)O)c3c(O)cccc32)cc1 | 4.17 | 86 | –
5 | Cc1ccccc1Cn1cc(C(=O)C2=C(O)C(=O)OC2)c2c(O)cccc21 | – | 34 | –
6 | Cc1cccc(C)c1Cn1cc(C(=O)C2=C(O)C(=O)OC2)c2c(O)cccc21 | 5.12 | 70 | –
7 | Cc1cc(C)cc(Cn2cc(C(=O)C3=C(O)C(=O)OC3)c3c(O)cccc32)c1 | 3.91 | 69 | –
8 | Cc1ccc(Cn2cc(C(=O)/C=C(\O)C(=O)O)c3c(O)cccc32)c(C)c1 | – | 55 | –
9 | Cc1ccc(C)c(Cn2cc(C(=O)C3=C(O)C(=O)OC3)c3c(O)cccc32)c1 | – | 38 | –
10 | O=C(O)/C(O)=C/C(=O)c1cn(Cc2ccc(F)cc2)c2cccc(O)c12 | 4.12 | 56 | –
11 | CCOC(=O)/C(O)=C/C(=O)c1cn(Cc2cc(C)ccc2C)c2cccc(O)c12 | – | 33 | –
12 | CCOC(=O)/C(O)=C/C(=O)c1cn(Cc2cc(C)cc(C)c2)c2cccc(O)c12 | – | 52 | –
13 | CCOC(=O)/C(O)=C/C(=O)c1cn(Cc2ccccc2C)c2cccc(O)c12 | – | 24 | –
14 | Cc1cccc(Cn2cc(C(=O)/C=C(\O)C(=O)O)c3c(O)cccc32)c1 | – | 16 | –
15 | Cc1ccc(Cn2cc(C(=O)C3=C(O)C(=O)OC3)c3c(O)cccc32)cc1 | 5.06 | 81 | –
16 | Cc1ccc(C)c(Cn2cc(C(=O)/C=C(\O)C(=O)O)c3c(O)cccc32)c1 | – | 40 | –
17 | CCOC(=O)/C(O)=C/C(=O)c1cn(Cc2c(C)cccc2C)c2cccc(O)c12 | – | 47 | –
18 | Cc1cccc(Cn2cc(C(=O)C3=C(O)C(=O)OC3)c3c(O)cccc32)c1 | 4.27 | 61 | –
19 | Cc1cc(C)cc(Cn2cc(C(=O)/C=C(\O)C(=O)O)c3c(O)cccc32)c1 | 5.46 | 94 | 10
20 | CCOC(=O)/C(O)=C/C(=O)c1cn(Cc2ccc(C)cc2)c2cccc(O)c12 | 3.77 | 60 | –
21 | Cc1cccc(Cn2cc(C(=O)/C=C(\O)C(=O)O)c3c(O)cccc32)c1C | 4.55 | 93 | –
22 | Cc1cccc(C)c1Cn1cc(C(=O)/C=C(\O)C(=O)O)c2c(O)cccc21 | – | 72 | –
23 | Cc1cccc(Cn2cc(C(=O)C3=C(O)C(=O)OC3)c3c(O)cccc32)c1C | – | 70 | –
24 | CCOC(=O)/C(O)=C/C(=O)c1cn(Cc2cccc(C)c2)c2cccc(O)c12 | – | 45 | –
25 | CCOC(=O)/C(O)=C/C(=O)c1cn(Cc2cccc(C)c2C)c2cccc(O)c12 | – | 57 | –
26 | CCOC(=O)/C(O)=C/C(=O)c1cn(Cc2ccc(C)cc2C)c2cccc(O)c12 | – | 58 | –
